According to paper PMC10486429, “Investigations Using Albumin Binders to Modify the Tissue Distribution Profile of Radiopharmaceuticals Exemplified with Folate Radioconjugates” (Cancers, 2023):

Columns and labels:
[1] = system: FR-positive KB tumor cells; assay: Uptake and internalization of 177Lu-RedFols in KB tumor cells; type: cell-based, human; conditions: 4 h incubation, percent of total added activity
Method: The KB cells (a human cervical carcinoma cell line, subclone of HeLa cells, ACC-136) were purchased from the German Collection of Microorganisms and Cell Cultures (DSMZ, Germany). The tumor cells were cultured in folate-deficient RPMI medium (FFRPMI, Cell Culture Technologies GmbH, Gravesano, Switzerland) supplemented with 10% fetal calf serum, […] and antibiotics.
The experiments to investigate the uptake and internalization of ^177Lu-RedFols (50 MBq/nmol) were performed according to a previously established protocol (Supplementary Materials Section S9). The results were presented as a percentage of total added activity and listed as the average ± SD of 3–6 independent experiments, each performed in triplicates. The data were analyzed for statistical significance using a one-way ANOVA with Tukey’s post-comparison test (GraphPad Prism software version 8) considering a p-value < 0.05 as statistically significant. […]
S8. Radiolabeling and Radiolytic Stability of Folate Radioconjugates
Purpose: RedFols were labeled with lutetium-177 and assessed for their in vitro sta- […]
Methods: Folate conjugates were dissolved in Milli-Q water containing 4–6% sodium ascorbate (0.5 M) to obtain a final concentration of 1 mM. Radiolabeling of the RedFols with lutetium-177 (no-carrier-added, in 0.04 M HCl; ITM Medical Isotopes GmbH, Mu-nich, Germany) was performed using a mixture of sodium acetate (0.5 M) and HCl (0.05 M) at pH ~4.5 in the presence of L-ascorbic acid (6 mg) as previously reported for […]
RedFol-1 (6R and 6S). […]
S9. Uptake and Internalization of 177Lu-RedFols
Purpose: Uptake and internalization studies were performed with all folate radiocon-jugates using folate receptor (FR)-positive KB tumor cells.
Methods: The experiments were performed as previously reported. KB tumor cells (human cervical cancer cell line, ACC-136) were seeded into poly-lysine-coated 12-well plates (0.5 × 10^6 cells in 2 mL per well) using folate-free RPMI (FFRPMI) medium supplemented with 10% fetal calf serum, glutamine and antibiotics. The tumor cells were incubated overnight to allow adhesion and growth at 37 °C and 5% CO2. After removal of the supernatant, the KB cells were rinsed with PBS prior to the addition of FFRPMI me-dium without supplements (975 µL/well). The folate radioconjugates (50 MBq/nmol) were added to each well in a volume of 25 µL (0.75 pmol, 38 kBq). In some wells, KB tumor cells were co-incubated with excess folic acid (100 µM) to block the FRs on the cell surface.
After incubation of the well plates for 2 h or 4 h at 37 °C and 5% CO2, the KB tumor cells were rinsed three times with ice-cold PBS to determine the total uptake of the folate radi-oconjugates. In order to assess the internalized fraction, a stripping buffer (aqueous solu-tion of 0.1 M acetic acid and 0.15 M NaCl, pH 3) was applied to release FR-bound folate radioconjugates from the cell surface. Cell samples were lysed by addition of NaOH solu-tion (1 M, 1 mL) to each well. The cell lysates were counted for activity in a γ-counter (Perkin Elmer, Wallac Wizard 1480, Waltham, MA, USA). The protein concentrations of […]
each sample were determined using a Micro BCA Protein Assay kit (Pierce, Thermo Sci-entific) in order to standardize the measured activity to the average content of protein in […]
Results: The results are presented in the main article and in Figure S1.
Figure S1. Uptake and internalization of folate radioconjugates in KB tumor cells after an incubation period of 2 h and 4 h at 37°C. (A) Uptake of the folate radioconjugates in KB tumor cells. (B) Inter-nalized fraction of folate radioconjugates in KB tumor cells. The data are expressed as average ± SD […]
S10. FR-binding Affinity (KD Values) of 177Lu-RedFols
Purpose: The folate radioconjugates were investigated in vitro in order to determine their FR-binding affinities (KD values).
Methods: The determination of the KD values was performed as previously reported […]

[2] = biological target: T1, mouse serum albumin (MSA) in mouse plasma (Mus musculus, UniProt P07724); assay: Ultrafiltration albumin-binding assay of 177Lu-RedFols, mouse plasma; conditions: for Relative albumin-binding affinity: mouse blood plasma, inverse B50 ratio, normalized to the respective (6R or 6S) RedFol-1, set as 1.0; for Albumin-bound fraction: undiluted mouse blood plasma
T1 construct: tissue Rockland Immunochemicals, Inc. Lot No. 32321; host or cells: mouse blood plasma, undiluted and diluted in PBS
T1 sequence (P07724 25-608): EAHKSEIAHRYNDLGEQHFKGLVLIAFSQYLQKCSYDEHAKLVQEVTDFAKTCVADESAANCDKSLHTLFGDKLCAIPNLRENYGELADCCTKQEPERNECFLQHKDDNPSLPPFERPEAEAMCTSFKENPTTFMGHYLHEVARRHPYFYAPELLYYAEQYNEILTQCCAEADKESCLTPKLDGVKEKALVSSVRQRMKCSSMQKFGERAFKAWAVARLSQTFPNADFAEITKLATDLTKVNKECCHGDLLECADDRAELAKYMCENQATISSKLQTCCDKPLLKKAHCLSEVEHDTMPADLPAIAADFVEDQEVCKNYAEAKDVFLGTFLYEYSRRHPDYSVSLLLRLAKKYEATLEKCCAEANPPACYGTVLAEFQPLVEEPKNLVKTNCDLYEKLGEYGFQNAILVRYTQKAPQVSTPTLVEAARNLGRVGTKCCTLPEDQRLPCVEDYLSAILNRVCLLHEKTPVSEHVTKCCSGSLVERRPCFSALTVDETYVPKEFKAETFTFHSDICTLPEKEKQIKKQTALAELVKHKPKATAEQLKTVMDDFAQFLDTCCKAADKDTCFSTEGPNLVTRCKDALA
Method: S11. Relative Albumin-Binding Properties of 177Lu-RedFols
human blood plasma was determined and compared.
Switzerland; HSA: ⁓800 µM), respectively. An ultrafiltration method was applied accord-
ples at 37 °C for 30 min.
unbound) fractions of each sample. The inserts of the filter devices were inverted and
were presented as average of 3 independent experiments.

Row | SMILES | Cell-Internalized Fraction [1] | Total Cell Uptake [1] | Relative albumin-binding affinity [2] | Albumin-bound fraction [2]
1 | CN1c2c(nc(N)[nH]c2=O)NC[C@H]1CNc1ccc(C(=O)N[C@@H](CCC(=O)N[C@@H](CCCCNC(=O)CN2CCN(CC(=O)O)CCN(CC(=O)O)CCN(CC(=O)O)CC2)C(=O)N[C@@H](CCCCNC(=O)c2ccc(CNC(=O)CCCc3ccc(I)cc3)cc2)C(=O)O)C(=O)O)cc1 [[^177Lu]Lu-6R-RedFol-3, metal not drawn] | 19 ± 8% | 39 ± 14% | 8.4 | 97%
2 | CN1c2c(nc(N)[nH]c2=O)NCC1CNc1ccc(C(=O)NC(CCC(=O)NC(CCCCNC(=O)CN2CCN(CC(=O)[O-])CCN(CC(=O)[O-])CCN(CC(=O)[O-])CC2)C(=O)NC(CCCCNC(=O)c2ccc(CNC(=O)CCCCc3ccc(I)cc3)cc2)C(=O)O)C(=O)O)cc1.[177Lu+3] (stereo not drawn) [[^177Lu]Lu-6S-RedFol-25] | 31 ± 3% | 55 ± 5% | 0.7 | 92%
3 | CN1c2c(nc(N)[nH]c2=O)NCC1CNc1ccc(C(=O)NC(CCC(=O)NC(CCCCNC(=O)CN2CCN(CC(=O)[O-])CCN(CC(=O)[O-])CCN(CC(=O)[O-])CC2)C(=O)NC(CCCCNC(=O)c2ccc(CNC(=O)CCCc3ccc(I)cc3)cc2)C(=O)O)C(=O)O)cc1.[177Lu+3] (stereo not drawn) [[^177Lu]Lu-6S-RedFol-3] | 23 ± 8% | 44 ± 11% | 3.5 | 97%
4 | CN1c2c(nc(N)[nH]c2=O)NC[C@H]1CNc1ccc(C(=O)N[C@@H](CCC(=O)N[C@@H](CCCCNC(=O)CN2CCN(CC(=O)O)CCN(CC(=O)O)CCN(CC(=O)O)CC2)C(=O)N[C@@H](CCCCNC(=O)CCCCc2ccc(I)cc2)C(=O)O)C(=O)O)cc1 [[^177Lu]Lu-6R-RedFol-24, metal not drawn] | 15 ± 1% | 40 ± 6% | 0.2 | 73%
5 | CN1c2c(nc(N)[nH]c2=O)NCC1CNc1ccc(C(=O)NC(CCC(=O)NC(CCCCNC(=O)CN2CCN(CC(=O)[O-])CCN(CC(=O)[O-])CCN(CC(=O)[O-])CC2)C(=O)NC(CCCCNC(=O)CCCc2ccc(I)cc2)C(=O)O)C(=O)O)cc1.[177Lu+3] (stereo not drawn) [[^177Lu]Lu-6S-RedFol-1] | 18 ± 1% | 62 ± 6% | 1.0 | 93%
6 | CN1c2c(nc(N)[nH]c2=O)NC[C@H]1CNc1ccc(C(=O)N[C@@H](CCC(=O)N[C@@H](CCCCNC(=O)CN2CCN(CC(=O)O)CCN(CC(=O)O)CCN(CC(=O)O)CC2)C(=O)N[C@@H](CCCCNC(=O)CCCc2ccc(I)cc2)C(=O)O)C(=O)O)cc1 [[^177Lu]Lu-6R-RedFol-1, metal not drawn] | 12 ± 2% | 49 ± 11% | 1.0 | 93%
7 | CN1c2c(nc(N)[nH]c2=O)NC[C@H]1CNc1ccc(C(=O)N[C@@H](CCC(=O)N[C@@H](CCCCNC(=O)CN2CCN(CC(=O)O)CCN(CC(=O)O)CCN(CC(=O)O)CC2)C(=O)N[C@@H](CCCCNC(=O)c2ccc(CNC(=O)CCCCc3ccc(I)cc3)cc2)C(=O)O)C(=O)O)cc1 [[^177Lu]Lu-6R-RedFol-25, metal not drawn] | 17 ± 3% | 29 ± 8% | 1.4 | 94%
